In publication doi:10.1101/2024.08.19.608619, “Discovery of potent SARS-CoV-2 nsp3 macrodomain inhibitors uncovers lack of translation to cellular antiviral response” (bioRxiv, 2024):
Converted amounts (≈) assume the structure as drawn. “And” between values parts separate entries of the source, which are not always exact repeats. Identical values can stand only once. Like-named read-outs stand apart in the source and are kept apart here.

Experiments:
[1] = tested on: SARS-CoV-2, isolate USA-WA1/2020; assay: microbe, parasite or virus in culture; type: cell-based; settings: for perc_max_measured: maximum measured response of dose series; for perc_min_measured: minimum measured response of dose series
[2] = tested on: SARS-CoV-2; assay: Antiviral effect in iPSC-derived pneumocyte system; type: cell-based; settings: iPSC pneumocytes SARS-CoV-2 antiviral effect; for perc_max_measured: maximum measured response of dose series; for perc_min_measured: minimum measured response of dose series
[3] = Hepatic microsomal stability, HLM; type: in vitro ADME, human; settings: In vitro human liver microsomal stability; for perc_remaining_no_cofactor: no cofactor; for microsomal CLint: liver microsomes
[4] = Hepatic microsomal stability, MLM; type: in vitro ADME
[5] = tested on: iPSC pneumocytes; assay: iPSC pneumocytes cytotoxicity; type: cell-based; settings: for perc_max_measured: highest measured response of the dose series; for perc_min_measured: lowest measured response of the dose series
Excerpt: (§1) Supplement media-1.zip/Cytotoxicity.csv, table | column: cc10; cc50; perc_min_measured; perc_max_measured

[6] = tested on: HeLa-ACE2 cells; settings: protocol HeLa-ACE2 cytotoxicity; for perc_max_measured: highest measured response of the dose series; for perc_min_measured: lowest measured response of the dose series
[7] = tested on: MERS-CoV; type: cell-based; settings: Vero 76 MERS-CoV antiviral effect
[8] = LogD; settings: pH 7.4
[9] = tested on: Vero 76
[10] = in vitro; set-up: Cytotoxicity in iPSC-derived pneumocytes, CC50; settings: human, ipsc-derived pneumocytes, read-out: 50.0
[11] = in vitro; settings: human, hela-ace2 cells, 50.0
[12] = In vitro kinetic solubility
[13] = Permeability Papp (AB) MDR1/MDCKII; settings: In vitro MDR1-MDCKII permeability; for papp_a_to_b_mean: A to B; for perc_recovery_a_to_b_mean: recovery A to B
[14] = target: SARS-CoV-2 nsp3-mac1 (Severe acute respiratory syndrome coronavirus 2, UniProt P0DTD1); assay: biochemical
[15] = iPSC pneumocytes cytotoxicity; type: cell-based; settings: protocol iPSC pneumocytes cytotoxicity
Excerpt: as §1

[16] = in vitro; settings: human
[17] = tested on: MDR1; assay: Permeability Papp (AB) MDR1/MDCKII; settings: dog, MDCK-MDR1, papp_a_to_b_mean, In vitro MDR1-MDCKII permeability, A to B
[18] = HeLa-ACE2 SARS-CoV-2 antiviral effect without P-gp inhibitor
[19] = HeLa-ACE2 SARS-CoV-2 antiviral effect without P-gp inhibitor, read-out: ec50
[20] = HeLa-ACE2 SARS-CoV-2 antiviral effect without P-gp inhibitor, read-out: ec90
[21] = In vitro mouse liver microsomal stability
[22] = In vitro mouse liver microsomal stability, no cofactor
[23] = In vitro kinetic solubility, ph 7.4
[24] = IC50, nsp3-mac1 activity, Figures 1-3 and text
[25] = Severe acute respiratory syndrome coronavirus 2, HeLa-ACE2 SARS-CoV-2 antiviral effect without P-gp inhibitor, read-out: ec50
[26] = Severe acute respiratory syndrome coronavirus 2, HeLa-ACE2 SARS-CoV-2 antiviral effect without P-gp inhibitor, read-out: ec90
[27] = Severe acute respiratory syndrome coronavirus 2
[28] = protocol iPSC pneumocytes cytotoxicity
[29] = Severe acute respiratory syndrome coronavirus 2, HeLa-ACE2

CNC(=O)c1c[nH]c2ncnc(N[C@H](c3ccc4c(c3)S(=O)(=O)CCC4)C(C)C)c12 (single isomer, unassigned) [ASAP-0011153]
perc_max_measured [1, 18]: 109.331%
perc_min_measured [1, 18]: 66.391%
EC50 [1, 19]: > 20 µM
EC90 [1, 20]: > 20 µM
EC50 [2]: 6.74 µM
EC90 [2]: > 50 µM
perc_max_measured [2]: 88.736%
perc_min_measured [2]: 31.934%
clint [3]: 258.0 µL/min/mg
perc_remaining [3]: 1.0%
t_half [3]: 6.5 min
perc_remaining_no_cofactor [3]: 94.0%
clint [4, 21]: 770.0 µL/min/mg
perc_remaining [4, 21]: 0.0%
t_half [4, 21]: 2.2 min
perc_remaining_no_cofactor [4, 22]: 99.0%
CC50 [5]: > 50 µM
cc10 [5]: > 50.0 µM
perc_max_measured [5]: 111.957%
perc_min_measured [5]: 100.111%
CC50 [6]: > 20 µM
cc10 [6]: > 20.0 µM
perc_max_measured [6]: 96.782%
perc_min_measured [6]: 85.977%
EC50 [7]: > 32 µM
logd ([8]; In vitro LogD): 2.7
CC50 [9]: > 32 µM
CC50 ([10]; ASAP-0008327-001=ASAP-0011153-001): > 50 µM
CC50 at 24 h [11]: > 20 µM
solubility_mean [12, 23]: 336 µM (≈ 144 µg/mL)
papp_a_to_b_mean ([13]; mean): 1.61 ×10⁻⁶ cm/s
perc_recovery_a_to_b_mean ([13]; mean): 92.7%

CC(C)C(Nc1ncnc2[nH]ccc12)c1ccc2c(c1)NC(=O)CO2 (stereo not shown) [ASAP-0008302]
IC50 [14, 24]: 0.71 µM
perc_max_measured [1, 18]: 123.573%
perc_min_measured [1, 18]: 69.199%
EC50 [1, 25]: > 50 µM
EC90 [1, 26]: > 50 µM
EC50 ([2]; Severe acute respiratory syndrome coronavirus 2, iPSC): > 50 µM
EC90 [2, 27]: > 50 µM
perc_max_measured [2]: 145.289%
perc_min_measured [2]: 92.172%
CC50 [15]: > 50 µM
cc10 [5, 28]: > 50.0 µM
perc_max_measured [5, 28]: 98.455%
perc_min_measured [5, 28]: 82.288%
cc10 [6]: > 50.0 µM
perc_max_measured [6]: 107.359%
perc_min_measured [6]: 95.445%
CC50 [16]: > 50 µM

CCNC(=O)c1cc2c(NC(c3ccc4c(c3)OCCO4)C(C)C)ncnc2[nH]1 (stereo not shown) [ASAP-0008444]
IC50 [14, 24]: 0.24 µM
increase in potency relative to the starting point ([14]; relative to ASAP-000450): 10 x
perc_max_measured [1, 18]: 122.873% and 94.861%
perc_min_measured [1, 18]: 70.184% and 54.623%
EC50 [1, 29]: > 20 µM
EC90 [1, 29]: > 20 µM
EC50 [2, 27]: 41.1 µM
EC90 [2, 27]: > 50 µM
perc_max_measured [2]: 136.848%
perc_min_measured [2]: 15.577%
perc_remaining [3]: 21.0%
t_half [3]: 19.7 min
perc_remaining_no_cofactor [3]: 103.0%
microsomal CLint [3]: 85 µL/min/mg
perc_remaining [4, 21]: 24.0%
t_half [4, 21]: 19.0 min
perc_remaining_no_cofactor ([4]; In vitro mouse liver microsomal stability; no cofactor): 109.0%
microsomal CLint ([4]; liver microsomes; In vitro mouse liver microsomal stability): 88 µL/min/mg
perc_max_measured [5, 28]: 91.985%
perc_min_measured [5, 28]: 70.899%
perc_max_measured [6]: 101.322% and 84.588%
perc_min_measured [6]: 64.265% and 70.325%
logd [8]: 3
CC50 [16]: > 20 µM
solubility ([12]; pH 7.4): 72 µM (≈ 28.5 µg/mL)
perc_recovery_a_to_b_mean ([13]; mean): 85.8%
Papp A→B ([17]; mean): 2.41 ×10⁻⁶ cm/s

CC(C)(C)[C@@H](Nc1ncnc2[nH]c(-c3cnn(CC(N)=O)c3)cc12)c1ccc2c(n1)OCCO2 [ASAP-0011162]
perc_max_measured [1, 18]: 115.43%
perc_min_measured [1, 18]: 93.464%
EC50 [1, 19]: > 20 µM
EC90 [1, 20]: > 20 µM
EC50 [2]: 11.4 µM
EC90 [2]: > 50 µM
perc_max_measured [2]: 91.919%
perc_min_measured [2]: 11.328%
clint [3]: 42.0 µL/min/mg
perc_remaining [3]: 49.0%
t_half [3]: 39.8 min
perc_remaining_no_cofactor [3]: 107.0%
clint [4, 21]: 30.0 µL/min/mg
perc_remaining [4, 21]: 59.0%
t_half [4, 21]: 56.2 min
perc_remaining_no_cofactor [4, 22]: 109.0%
CC50 [5]: > 50 µM
cc10 [5]: > 50.0 µM
perc_max_measured [5]: 104.975%
perc_min_measured [5]: 91.59%
CC50 [6]: > 20 µM
cc10 [6]: > 20.0 µM
perc_max_measured [6]: 99.27%
perc_min_measured [6]: 66.005%
logd ([8]; In vitro LogD): 2.9
CC50 ([10]; ASAP-0008327-001=ASAP-0011162-001): > 50 µM
CC50 at 24 h [11]: > 20 µM
solubility_mean [12, 23]: 390 µM (≈ 180 µg/mL)
papp_a_to_b_mean ([13]; mean): 1.53 ×10⁻⁶ cm/s
perc_recovery_a_to_b_mean ([13]; mean): 75.9%

CNCc1cc(-c2cc3c(N[C@@H](c4ccc5c(c4)S(=O)(=O)NCC5)C(C)C)ncnc3[nH]2)co1 [ASAP-0011243]
perc_max_measured [1, 18]: 99.818%
perc_min_measured [1, 18]: 81.688%
EC50 [1, 19]: > 20 µM
EC90 [1, 20]: > 20 µM
EC50 [2]: 30.7 µM
EC90 [2]: > 50 µM
perc_max_measured [2]: 102.14%
perc_min_measured [2]: 30.967%
clint [3]: 46.0 µL/min/mg
perc_remaining [3]: 47.0%
t_half [3]: 35.9 min
perc_remaining_no_cofactor [3]: 93.0%
clint [4, 21]: 42.0 µL/min/mg
perc_remaining [4, 21]: 49.0%
t_half [4, 21]: 40.0 min
perc_remaining_no_cofactor [4, 22]: 95.0%
CC50 [5]: > 50 µM
cc10 [5]: > 50.0 µM
perc_max_measured [5]: 101.3%
perc_min_measured [5]: 90.486%
CC50 [6]: > 20 µM
cc10 [6]: > 20.0 µM
perc_max_measured [6]: 96.42%
perc_min_measured [6]: 81.709%
logd ([8]; In vitro LogD): 1.9
CC50 ([10]; ASAP-0008327-001=ASAP-0011243-001): > 50 µM
CC50 at 24 h [11]: > 20 µM
solubility_mean [12, 23]: 372 µM (≈ 179 µg/mL)
papp_a_to_b_mean ([13]; mean): 1.2 ×10⁻⁶ cm/s
perc_recovery_a_to_b_mean ([13]; mean): 76.5%

CCNC(=O)c1cc2c(NC(c3ccc4c(c3)S(=O)(=O)CCC4)C(C)C)ncnc2[nH]1 (stereo not shown) [ASAP-0012349]
IC50 ([14]; HTRF IC50, Figure 4B, bioactive pure enantiomer): 0.031 µM
perc_max_measured [1, 18]: 108.517%
perc_min_measured [1, 18]: 90.612%
EC50 [1, 25]: > 20 µM
EC90 [1, 26]: > 20 µM
perc_remaining [3]: 0.0%
t_half [3]: 1.9 min
perc_remaining_no_cofactor [3]: 102.0%
microsomal CLint ([3]; human): 892 µL/min/mg
perc_remaining [4, 21]: 43.0%
t_half [4, 21]: 30.8 min
perc_remaining_no_cofactor [4, 22]: 114.0%
microsomal CLint ([4]; mouse, liver microsomes, In vitro mouse liver microsomal stability): 54 µL/min/mg
cc10 [6]: > 20.0 µM
perc_max_measured [6]: 99.328%
perc_min_measured [6]: 84.17%
logd ([8]; pH 7.4, logd, In vitro LogD): 2.8
CC50 [16]: > 20 µM
solubility ([12]; pH 7.4, solubility_mean, In vitro kinetic solubility, ph 7.4): 316 µM (≈ 140 µg/mL)
perc_recovery_a_to_b_mean ([13]; no inhibitor): 66.9%
Papp A→B ([17]; no inhibitor): 0.532 ×10⁻⁶ cm/s
